Test results from patent US9169279B2, “Crystallization method and bioavailability” (THAR PHARMACEUTICALS, INC., priority 2009, dated 2015).
Read-outs that look alike come from different tables or passages of the source.

Key:
[1] = Dog PK study: zoledronic acid in serum after IV or oral capsule dosing, enteric or non-enteric coated, with or without excess coformer (LC/MS/MS); format: in vivo, Beagle dogs; settings: beagle
Description: This can be attributed to the fact that both animals have historically been used in the safety evaluation and PK screening studies and are recommended by appropriate regulatory agencies. […] Additional tests included ID administration in rats and administration of enteric coated capsules in dogs.
USA. Some animals have surgical catheters (jugular vein and intraduodenum) were implanted to the animals prior to the studies. Beagle dogs from Marshall Farms, N.Y., USA, weighing from (9-12 kg) were used in the studies presented herein. Surgical catheters (jugular vein) were implanted prior to the studies.
The dose volume of each dog was adjusted based upon the average weight of the dog. • ii. […]
Blood samples were placed without the use of an anticoagulant and allowed to sit at room temperature for approximately 30 minutes. Samples were then centrifuged at a temperature of 4° C., at a speed of 13,000 rpm, for 5 minutes. Serum was collected and split into two aliquots and stored frozen (−80° C.) until analysis.
In this study, capsules of particulate materials (zoledronic:DL-lysine:water complex and excess pure DL-lysine).

[2] = Dog urine excretion: quantity of zoledronic acid in urine over collection intervals (LC/MS/MS); format: in vivo, Beagle dogs; settings: Leg 38, 0.12 mg/kg IV, saline solution
[3] = according to FDA Summary Basis of Approval; cited from earlier work
[4] = cited from earlier work
[5] = in vivo; cited from earlier work
[6] = iv, 0.12 mg/kg, Leg 38, 0.12 mg/kg IV, saline solution, read-out: Average serum concentration of 4 dogs
[7] = iv, 0.183 mg/kg, Leg 13, 0.183 mg/kg IV, saline solution, read-out: Average serum concentration of 5 dogs
[8] = po, Leg 19, 61.3 mg with 322.9 mg DL-lysine monohydrate, gelatin capsule, PO, read-out: Average serum concentration of 5 dogs
[9] = po, Leg 24, 64.0 mg with 374.8 mg L-lysine HCl, gelatin capsule, PO, read-out: Average serum concentration of 5 dogs

O=P(O)(O)C(O)(Cn1ccnc1)P(=O)(O)O [Zoledronic acid, (1-hydroxy-2-imidazol-1-yl-1-phosphono-ethyl)phosphonic acid]
concentration at 1 h [1, 6]: 174 ng/mL
concentration at 1.25 h [1, 6]: 121 ng/mL
concentration at 1.5 h [1, 6]: 90.6 ng/mL
concentration at 2 h [1, 6]: 55.7 ng/mL
concentration at 4 h [1, 6]: 15.1 ng/mL
concentration at 8 h [1, 6]: 5.74 ng/mL
concentration at 24 h [1, 6]: 2.49 ng/mL
concentration at 0 h [1, 7]: 0.64 ng/mL
concentration at 5 min [1, 7]: 477 ng/mL
concentration at 10 min [1, 7]: 756 ng/mL
concentration at 0.25 h [1, 7]: 1060 ng/mL
concentration at 20 min ([1]; iv, 0.183 mg/kg, Leg 13, 0.183 mg/kg IV, saline solution, 20 min, read-out: Average serum concentration of 5 dogs): 746 ng/mL
concentration at 25 min ([1]; iv, 0.183 mg/kg, Leg 13, 0.183 mg/kg IV, saline solution, 25 min, read-out: Average serum concentration of 5 dogs): 629 ng/mL
concentration at 0.5 h [1, 7]: 523 ng/mL
concentration at 0.75 h [1, 7]: 343 ng/mL
concentration at 1 h [1, 7]: 245 ng/mL
concentration at 1.25 h [1, 7]: 183 ng/mL
concentration at 1.5 h [1, 7]: 140 ng/mL
concentration at 2 h [1, 7]: 80.9 ng/mL
concentration at 4 h [1, 7]: 23.4 ng/mL
concentration at 8 h [1, 7]: 8.78 ng/mL
concentration at 24 h [1, 7]: 3.84 ng/mL
concentration at 0 h [1, 8]: 0 ng/mL
concentration at 5 min [1, 8]: 34.1 ng/mL
concentration at 10 min [1, 8]: 42.7 ng/mL
concentration at 0.25 h [1, 8]: 220 ng/mL
concentration at 0.5 h [1, 8]: 659 ng/mL
concentration at 0.75 h [1, 8]: 479 ng/mL
concentration at 1 h [1, 8]: 384 ng/mL
concentration at 1.5 h [1, 8]: 210 ng/mL
concentration at 2 h [1, 8]: 136 ng/mL
concentration at 4 h [1, 8]: 34.2 ng/mL
concentration at 8 h [1, 8]: 8.53 ng/mL
concentration at 24 h [1, 8]: 2.07 ng/mL
concentration at 0 h [1, 9]: 0 ng/mL
concentration at 5 min [1, 9]: 0 ng/mL
concentration at 10 min [1, 9]: 1.2 ng/mL
concentration at 0.25 h [1, 9]: 14.1 ng/mL
concentration at 0.5 h [1, 9]: 172 ng/mL
concentration at 0.75 h [1, 9]: 340 ng/mL
concentration at 1 h [1, 9]: 283 ng/mL
concentration at 1.5 h [1, 9]: 163 ng/mL
concentration at 2 h [1, 9]: 100 ng/mL
concentration at 4 h [1, 9]: 26.3 ng/mL
concentration at 8 h [1, 9]: 4.56 ng/mL
concentration at 24 h [1, 9]: 0.89 ng/mL
Average quantity of zoledronic acid in urine excretion of 4 dogs ([2]; interval 0-4 h): 242050 ng
Average quantity of zoledronic acid in urine excretion of 4 dogs ([2]; interval 4-8 h): 21165 ng
Average quantity of zoledronic acid in urine excretion of 4 dogs ([2]; interval 8-12 h): 10925 ng
Average quantity of zoledronic acid in urine excretion of 4 dogs ([2]; interval 12-24 h): 43700 ng
Average quantity of zoledronic acid in urine excretion of 4 dogs ([2]; interval 24-96 h): 263151 ng
oral bioavailability [3]: approximately 1%
solubility ([4]; in 0.1 N HCl solution): sparingly soluble
solubility ([4]; in 0.1 N NaOH): freely soluble
solubility ([4]; in various organic solvents): practically insoluble
solubility ([4]; in water): sparingly soluble
gastric and intestinal irritations [5]: severe gastric and intestinal irritations
